Results from DBAASP.
Values after ≈ are worked out from the molar mass of the structure shown. One block for each molecule: values may come before it.

Legend:
Assay in all cases: ≥ marks a high value that may be exact or a test limit, other limits are often not marked, values filed in µg/mL are converted to µM
[1] = test system: Staphylococcus aureus Q14-0325
[2] = test system: Campylobacter jejuni NCTC 11351
[3] = test system: Enterococcus faecalis JH-2-2
Pseudomonas aeruginosa = test system: Pseudomonas aeruginosa
[4] = test system: Pseudomonas aeruginosa Q14-0890
[5] = test system: Klebsiella pneumoniae Q14-0095
[6] = test system: Pseudomonas aeruginosa Q14-0208
[7] = test system: Staphylococcus aureus ATCC 29213
[8] = test system: Klebsiella pneumoniae ATCC 700603
[9] = test system: Klebsiella pneumoniae NCTC 13442
[10] = test system: Acinetobacter baumannii Q12-0867
[11] = test system: Pseudomonas aeruginosa PAO1
[12] = test system: Staphylococcus aureus RN4220
[13] = test system: Acinetobacter baumannii Q13-0717
Escherichia coli K-12 = test system: Escherichia coli K-12
[14] = test system: Staphylococcus aureus NCTC 12493
[15] = test system: Staphylococcus aureus MRSA-15
[16] = test system: Staphylococcus aureus Q14-0320
[17] = test system: Salmonella typhimurium SL1344
[18] = test system: Listeria monocytogenes NCTC 11994
Escherichia coli = test system: Escherichia coli
[19] = test system: Pseudomonas aeruginosa ATCC 27853
Campylobacter jejuni = test system: Campylobacter jejuni
[20] = test system: Candida parapsilosis CCARM 14016
[21] = test system: Fusarium graminearum KCTC 16656
[22] = test system: Fusarium solani KCTC 6326
[23] = test system: Trichophyton rubrum KCTC 6345
[24] = test system: Candida krusei CCARM 14017
[25] = test system: Trichoderma viride KCTC 16992
[26] = test system: Trichoderma virens KCTC 16924
[27] = test system: Candida albicans CCARM 14020
[28] = test system: Fusarium verticillioides KCTC 6149
[29] = test system: Candida albicans CCARM 14007
[30] = test system: Colletotrichum gloeosporioides KCTC 6169
[31] = test system: Candida albicans CCARM 14001
[32] = test system: Candida albicans KCTC 7270
[33] = test system: Fusarium oxysporum KCTC 16909
[34] = test system: Aspergillus flavus KCTC 6905
[35] = test system: Candida albicans CCARM 14004
[36] = test system: Candida parapsilosis CGMCC 2.3989
[37] = test system: Salmonella enterica subsp. enterica serovar Pullorum ATCC 7913
[38] = test system: Staphylococcus epidermidis ATCC 12228
Escherichia coli 1005 = test system: Escherichia coli 1005
[39] = test system: Salmonella enterica subsp. enterica serovar Typhimurium ATCC 14028
[40] = test system: Candida krusei CGMCC 2.1857
[41] = test system: Staphylococcus aureus ATCC 43300
[42] = test system: Candida tropicalis CGMCC 2.1975
Candida albicans = test system: Candida albicans
[43] = test system: Staphylococcus aureus ATCC 25923
[44] = test system: Listeria monocytogenes ATCC 19115
[45] = test system: Staphylococcus aureus CMCC 26003

MIC [20]: 8 µM (≈ 25.3 µg/mL)
MIC [21]: 4 µM (≈ 12.7 µg/mL)
MIC [22]: 1 µM (≈ 3.16 µg/mL)
MIC [23]: 2 µM (≈ 6.33 µg/mL)
MIC [24]: 4 µM (≈ 12.7 µg/mL)
MIC [25]: 1 µM (≈ 3.16 µg/mL)
MIC [26]: 4 µM (≈ 12.7 µg/mL)
MIC [27]: 8 µM (≈ 25.3 µg/mL)
MIC [28]: 2 µM (≈ 6.33 µg/mL)
MIC [29]: 8 µM (≈ 25.3 µg/mL)
MIC [30]: 1 µM (≈ 3.16 µg/mL)
MIC [31]: 8 µM (≈ 25.3 µg/mL)
MIC [32]: 8 µM (≈ 25.3 µg/mL)
MIC [33]: 2 µM (≈ 6.33 µg/mL)
MIC [34]: 2 µM (≈ 6.33 µg/mL)
MIC [35]: 8 µM (≈ 25.3 µg/mL)
Compound: NCCCC[C@H](NC(=O)[C@H](CCCCN)NC(=O)[C@H](Cc1cnc[nH]1)NC(=O)[C@H](CCCCN)NC(=O)[C@H](CCCCN)NC(=O)[C@H](Cc1cnc[nH]1)NC(=O)[C@H](CCCCN)NC(=O)[C@H](CCCCN)NC(=O)[C@H](Cc1cnc[nH]1)NC(=O)[C@H](CCCCN)NC(=O)[C@H](CCCCN)NC(=O)[C@H](Cc1cnc[nH]1)NC(=O)[C@H](CCCCN)NC(=O)[C@H](CCCCN)NC(=O)[C@H](Cc1cnc[nH]1)NC(=O)[C@H](CCCCN)NC(=O)[C@H](CCCCN)NC(=O)[C@H](Cc1cnc[nH]1)NC(=O)[C@H](CCCCN)NC(=O)[C@H](CCCCN)NC(=O)[C@H](Cc1cnc[nH]1)NC(=O)[C@H](CCCCN)NC(=O)[C@H](CCCCN)NC(=O)[C@@H](N)Cc1cnc[nH]1)C(N)=O [HKKHKKHKKHKKHKKHKKHKKHKK]

MIC [20]: ≥ 32 µM
MIC [21]: ≥ 32 µM
MIC [22]: 16 µM (≈ 19.2 µg/mL)
MIC [23]: ≥ 32 µM
MIC [24]: 16 µM (≈ 19.2 µg/mL)
MIC [25]: 16 µM (≈ 19.2 µg/mL)
MIC [26]: 16 µM (≈ 19.2 µg/mL)
MIC [27]: ≥ 64 µM
MIC [28]: 16 µM (≈ 19.2 µg/mL)
MIC [29]: ≥ 64 µM
MIC [30]: 8 µM (≈ 9.58 µg/mL)
MIC [31]: ≥ 64 µM
MIC [32]: ≥ 64 µM
MIC [33]: ≥ 32 µM
MIC [34]: 16 µM (≈ 19.2 µg/mL)
MIC [35]: ≥ 64 µM
Compound: NCCCC[C@H](NC(=O)[C@H](CCCCN)NC(=O)[C@H](Cc1cnc[nH]1)NC(=O)[C@H](CCCCN)NC(=O)[C@H](CCCCN)NC(=O)[C@H](Cc1cnc[nH]1)NC(=O)[C@H](CCCCN)NC(=O)[C@H](CCCCN)NC(=O)[C@@H](N)Cc1cnc[nH]1)C(N)=O [HKKHKKHKK]

MIC [36]: ≥ 64 µM
MIC [7]: 8 µM (≈ 11 µg/mL)
MIC [37]: ≥ 32 µM
MIC [38]: 4 µM (≈ 5.51 µg/mL)
MIC (Escherichia coli 1005): 8 µM (≈ 11 µg/mL)
MIC [39]: 4 µM (≈ 5.51 µg/mL)
MIC [40]: 4 µM (≈ 5.51 µg/mL)
MIC [41]: 4 µM (≈ 5.51 µg/mL)
MIC [42]: 4 µM (≈ 5.51 µg/mL)
MIC (Candida albicans): 11.3 µM (≈ 15.6 µg/mL)
MIC [43]: 4 µM (≈ 5.51 µg/mL)
Compound: NC(=O)[C@H](Cc1ccccc1)NC(=O)[C@H](Cc1ccccc1)NC(=O)[C@H](CCCN=C(N)N)NC(=O)[C@H](CCCN=C(N)N)NC(=O)[C@H](Cc1ccccc1)NC(=O)[C@H](CCCN=C(N)N)NC(=O)[C@H](CCCN=C(N)N)NC(=O)[C@H](Cc1ccccc1)NC(=O)[C@@H](N)Cc1ccccc1 [FFRRFRRFF]

Second part, the molecule before the results:

Compound: CC[C@H](C)[C@H](NC(=O)CNC(=O)[C@H](CCCN=C(N)N)NC(=O)CNC(=O)[C@H](CCCCN)NC(=O)[C@H](CC(N)=O)NC(=O)[C@H](CCCCN)NC(=O)[C@H](CC(=O)O)NC(=O)[C@H](CCCN=C(N)N)NC(=O)[C@H](CS)NC(=O)[C@H](Cc1ccc(O)cc1)NC(=O)[C@@H](NC(=O)[C@H](CCCCN)NC(=O)[C@H](CC(C)C)NC(=O)[C@H](CCCN=C(N)N)NC(=O)[C@@H](NC(=O)[C@H](Cc1ccccc1)NC(=O)[C@@H](N)CCCCN)C(C)C)[C@@H](C)CC)C(=O)N[C@@H](CO)C(=O)N[C@@H](Cc1ccccc1)C(=O)O [KFVRLKIYCRDKNKGRGISF]
MIC [1]: 26.3 µM (≈ 64 µg/mL)
MIC [2]: ≥ 52.7 µM
MIC [3]: ≥ 52.7 µM
MIC (Pseudomonas aeruginosa): 13.2 µM (≈ 32 µg/mL)
MIC [4]: 26.3 µM (≈ 64 µg/mL)
MIC [5]: ≥ 52.7 µM
MIC [6]: ≥ 52.7 µM
MIC [7]: > 52.7 µM
MIC [8]: 52.7 µM (≈ 128 µg/mL)
MIC [9]: ≥ 52.7 µM
MIC [10]: 26.3 µM (≈ 64 µg/mL)
MIC [11]: 52.7 µM (≈ 128 µg/mL)
MIC [12]: ≥ 52.7 µM
MIC [13]: ≥ 52.7 µM
MIC (Escherichia coli K-12): 26.3 µM (≈ 64 µg/mL)
MIC [14]: 26.3 µM (≈ 64 µg/mL)
MIC [15]: ≥ 52.7 µM
MIC [16]: ≥ 52.7 µM
MIC [17]: ≥ 52.7 µM
MIC [18]: ≥ 52.7 µM
MIC (Escherichia coli): 52.7 µM (≈ 128 µg/mL)
MIC [19]: 52.7 µM (≈ 128 µg/mL)
MIC (Campylobacter jejuni): ≥ 52.7 µM

Compound: CC[C@H](C)[C@H](NC(=O)[C@H](CCCN=C(N)N)NC(=O)[C@H](CCCN=C(N)N)NC(=O)[C@H](CC(C)C)NC(=O)[C@@H](N)Cc1ccccc1)C(=O)N[C@@H](CCCN=C(N)N)C(=O)N[C@H](C(N)=O)C(C)C [FLRRIRV]
MIC [44]: ≥ 133 µM
MIC [45]: ≥ 133 µM
